The results in this text go back to US5866588A, “Imidazopyridine derivatives” (British Biotech Pharmaceuticals Ltd., priority 1995, dated 1999).

Assay [1] concerns the target T1, histamine-1 receptors on Hela-S3 cells (Homo sapiens, UniProt P35367).
T1 construct: histamine-1 receptors on Hela-S3 cells (American Type Culture Collection); host or cells: HeLa-S3 cells (intact cell suspension)
As to the kind of experiment: Inhibition of [^3 H]-Pyrilamine Binding to Histamine-1 Receptors on Hela-S3 Cells. The conditions noted are these: 0.5 h; 1 μM test compound; [^3 H]-pyrilamine remaining specifically bound; 37° C., 30 minutes; read-out: % Specific Binding at 1 μM. On the procedure:
Inhibition of [^3 H]-Pyrilamine Binding to Histamine-1 Receptors on Hela-S3 Cells
The inhibition of [^3 H]-pyrilamine binding to histamine-1 receptors on Hela-S3 cells (American Type Culture Collection) was determined by isotopic labelling and filtration techniques. A suspension of the cells in buffer (25 ml, 0.5% Bovine Serum Albumin, 0.1% sodium azide, phosphate buffered saline (PBS)) was centrifuged at 1000 rpm for 5 minutes in a JOUAN CR 422 centrifuge, collected, resuspended in buffer (25 ml) and spun again. The cells were counted using a haemocytometer and resuspended in buffer to provide a final concentration of 4.5×10^6 cells ml^-1. A portion of the Hela-S3 cell suspension (1 ml) was added to each assay tube containing 25 μl of vehicle (50% DMSO/buffer) or 25 μl of test compound solution (dissolved in DMSO and diluted with sufficient PBS to give a final test concentration of 1 μM) and 25 μl of [^3 H]-pyrilamine (supplied by Amersham International and diluted with PBS to 3 nM). The tubes were mixed, incubated at 37° C. for 30 minutes and then spun at 4° C. at 2000 rpm for 2 minutes. The supernatant was removed and the cells resuspended in buffer (repeated ×2). The cells were suspended in 300 μl of a 2:1 solution of 1M sodium hydroxide and 1% sodium dodecyl sulphate. The tubes were left ovemight before the contents were tranferred to a scintillation vial, treated with 10 ml, OPTIPHASE MP scintillation fluid (OPTIPHASE MP is a trade mark) and the radioactivity counted in a scintillation counter. Non-displacable binding (NDB) was determined using Astemizole (5×10^-5 M) in place of test compounds. Defining the counts for total binding from the vehicle control sample as "TB" and the counts for total binding with antogonist as "TBA" the percentage specific binding (% SB) can be determined from the following equation.

For assay [2], the system named is PAF Induced Bronoconstriction. As to the kind of experiment: PAF Induced Bronoconstriction in the Anaesthetised Guinea Pig. It counts as in vivo, guinea pig (Dunkin-Hartley). As to conditions: Cavia porcellus, po, 1 h; p.o.; PAF 100 ngkg^-1 i.v. bolus one hour after dosing; read-out: ED50 (PAF induced bronchoconstriction). The procedure:
PAF Induced Bronoconstriction in the Anaesthetised Guinea Pig
(§1) Following oral administration of test compound or vehicle, male Dunkin-Hartley guinea pigs (350-400 g) were anaesthetised by intraperitoneal injection of 60 mgkg^-1 sodium pentobarbitone (Sagatal, May & Baker UK). Through a midline incision of the neck, the trachea was cannulated and connected to a small animal respirator (Harvard, UK) Animals were artificially ventilated at a rate of 30 breaths per minute with a tidal of 8-10 ml to give a resting tracheal inflation pressure of 15 mmHg as measured by a physiological pressure transducer (type P23XL, Spectramed USA) connected to a side arm of the respiratory circuit.
A jugular vein was cannulated for the administration of a bolus dose of propranolol and for the later administration of bolus PAF. A carotid artery was cannulated for the measurement of arterial blood pressure via a physiological pressure transducer (type P23XL, Spectramed USA). Blood pressure and tracheal inflation pressure were recorded on a thermal array chart recorder (type TA4000, Gould Electronics UK).
Propranolol (1 mgkg^-1 i.v. & 3 mgkg^-1 s.c. Sigma Chemical Co. UK) was administered 10 minutes before PAF in order to prevent the bronchodilatory activity of catecholamines which may be released in response to PAF administration. PAF (100 ngkg^-1 i.v. bolus) was administered at the one hour time point following oral administration of the test compound or vehicle.
Changes in tracheal inflation pressure and blood pressure of drug treated animals were compared with changes from vehicle treated animals and percentage inhibition determined. One dose of test compound was investigated per animal.

For assay [3], the system named is Histamine Induced Bronchoconstriction. The assay is described as follows: Histamine Induced Bronchoconstriction in the Anaesthetised Guinea Pig. The conditions noted are these: p.o.; for ED50: Cavia porcellus, po, 1 h, histamine infusion 10 μgkg^-1 min^-1 one hour after dosing. It counts as in vivo, guinea pig (Dunkin-Hartley).
From the text: Histamine Induced Bronchoconstriction in the Anaesthetised Guinea Pig
as §1, with “or vehicle by oral gavage,” for “or vehicle,”, “(Harvard, UK).” for “(Harvard, UK)”, “tidal volume” for “tidal”
A jugular vein was cannulated for the administration of propranolol and for the infusion of histamine. A carotid artery was cannulated for the measurement of arterial blood pressure via a physiological pressure transducer (type P23XL, Spectramed USA). Blood pressure and tracheal inflation pressure were recorded on a thermal array chart recorder (type TA4000, Gould Electronics UK).
Following a suitable equilibration period, propranolol (1 mgkg^-1 i.v. & 3 mgkg^-1 s.c. Sigma Chemical Co. UK) was administered to inhibit any resulting catecholamine release following histamine administration.
Histamine infusion (10 μgkg^-1 min^-1 at a rate of 10 mlhr^-1 using a perfusion pump type Perfuser securer FT, B. Braun Germany) was started at the one hour time point following oral administration of the test compound or vehicle. Changes in tracheal inflation pressure and blood pressure of drug treated animals were compared with changes from vehicle treated animals and ED50 values determined. One dose of test compound was investigated per animal.

Assay [4] has as its system PAF-Induced Platelet Aggregation. As to the kind of experiment: Inhibition of PAF-Induced Platelet Aggregation. It counts as cell-based, rabbit (New Zealand White). The conditions noted are these: Oryctolagus cuniculus; rabbit platelet-rich plasma, PAF 100 ngml^-1. On the procedure: Inhibition of PAF-Induced Platelet Aggregation
Male New Zealand White rabbits (3.0-3.5 kg) were anaesthetised by intravenous administration of sodium pentobarbitone, 18 mg.ml^-1, via a marginal ear vein. The trachea was exposed and connected to a respiratory pump (Harvard UK) to provide artificial ventilation. A carotid artery was exposed and cannulated and the animal was exsanguinated. Whole blood was collected in a syringe containing tri-sodium citrate (3.8% w/v) to a ratio of 1 part citrate:9 parts blood.
Collected blood was centrifuged at 180×g for 15 minutes at room temperature (21° C.) to prepare platelet-rich plasma (PRP). The remaining blood was then centrifuged at 1800×g for 10 minutes at room temperature to obtain platelet poor plasma (PPP).
Platelet count of the PRP was measured using a Technicon H1 blood cell differential analyser (Bayer Diagnostics UK) and adjusted with PPP to obtain a final platelet count of 500,000 platelets per μl of plasma, this being the normal physiological platelet count for rabbits. Corrected PRP was left to equilibrate at room temperature for 30 minutes before use.
Aggregation studies were carried out using a 4-channel aggregometer (PAP-4C, BioData USA) as follows: 400 μl aliquots of PRP were placed in siliconised cuvettes and incubated to 37° C. for 1 to 2 minutes in the heating block of the aggregometer. Baseline (100% aggregation) was set up using PPP (500 μl in a siliconised cuvette). The PRP was placed into a measuring well of the aggregometer, and a stirrer bar was added. The sample was stirred at 1000 rpm. The machine was activated to set the 0% aggregation level. Test compound or vehicle (50 μl) was added to the PRP, where any effects on the baseline was noted. PAF (100 ngml^-1 as 50 μl aliqout) was added to the PRP 3 minutes after test compound or vehicle. Aggregation was measured for a further 4 minutes after PAF addition and the maximum aggregation over the 4 minutes was recorded.
The investigation of different concentrations of test compound was performed in triplicate. Data were expressed as […] of the sample and test compound data were compared to vehicle data to obtain % inhibition of the PAF-induced aggregation from which IC50 values could be determined.
PAF was made up in sterile saline (NaCl 0.9% w/v) containing BSA (0.25% w/v) from an initial stock solution (10 mgml^-1 in EtOH). Test compounds were made up as 1×10^-3 M stock solutions in sterile saline containing molar equivalents of 1N HCl (v/v) or in DMSO.
In the results which follow, a comparison compound A was included. Compound A was prepared as described in EP-A-260613 (G. D. Searle), but is not part of the present invention. As appears from the results of the comparison, compounds of this invention, all of which incorporate a fragment capable of H1 antagonist activity, are observed to show improved PAF antagonist activity over compound A.

T1 sequence (P35367 whole entry): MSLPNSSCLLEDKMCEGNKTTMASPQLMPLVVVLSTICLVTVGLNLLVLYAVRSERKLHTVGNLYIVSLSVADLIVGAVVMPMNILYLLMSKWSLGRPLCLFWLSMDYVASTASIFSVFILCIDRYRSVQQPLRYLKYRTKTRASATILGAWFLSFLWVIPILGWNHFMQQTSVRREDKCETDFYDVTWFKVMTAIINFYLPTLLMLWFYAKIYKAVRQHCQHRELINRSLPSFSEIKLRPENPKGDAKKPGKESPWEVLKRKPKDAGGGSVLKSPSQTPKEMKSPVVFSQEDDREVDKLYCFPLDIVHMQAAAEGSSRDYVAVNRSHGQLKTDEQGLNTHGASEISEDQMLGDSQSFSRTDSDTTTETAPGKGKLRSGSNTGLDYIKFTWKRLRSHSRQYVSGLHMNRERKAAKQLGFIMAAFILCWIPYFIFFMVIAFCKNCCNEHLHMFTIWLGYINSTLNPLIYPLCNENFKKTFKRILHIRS

A word on the ED50: it is the midpoint of the dose-response relation. As usually defined, the IC50 is the concentration that inhibits the measured activity by half. With `Cc1ccc(/C(=C\CN2CCCC2)c2cccc(/C=C/CN(C)C(=O)c3ccc(Cn4c(C)nc5cnccc54)cc3)n2)cc1` [Example 3, N-Methyl-4-(1H-2-methylimidazo[4,5-c]pyridin-1-ylmethyl)-N-{3-[6-(3-pyrrolidin-1-yl-1-{4-tolyl}-prop-1E-enyl)-pyridin-2-yl]-prop-2E-enyl}-benzamide], the activity at 1 µM in assay [1] stood at 19%. The results for the ED50 in assay [2] and in assay [3] were 5.8 mg/kg and 0.4 mg/kg, respectively. In addition, the IC50 in assay [4] was found to be 1480 nM.
On the same counts, the results for `Cc1ccc(/C(=C\CN2CCCC2)c2cccc(/C=C/CN(C(=O)c3ccc(Cn4c(C)nc5cnccc54)cc3)C3CCCCC3)n2)cc1` [Example 4, N-Cyclohexyl-4-(1H-2-methylimidazo[4,5-c]pyridin-1-ylmethyl)-N-{3-[6-(3-pyrrolidin-1-yl-1-{4-tolyl}-prop-1E-enyl)-pyridin-2-yl]-prop-2E-enyl}-benzamide] are 42%, 1.55 mg/kg, 0.85 mg/kg and 167 nM.
Turning to `CCN(C/C=C/c1cccc(/C(=C/CN2CCCC2)c2ccc(C)cc2)n1)C(=O)c1ccc(Cn2c(C)nc3cnccc32)cc1` [Example 13, N-Ethyl-4-(1H-2-methylimidazo[4,5-c]pyridin-1-ylmethyl)-N-{3-[6-(3-pyrrolidin-1-yl1-{4-tolyl}-prop-1E-enyl)-pyridin-2-yl]-prop-2E-enyl}-benzamide], the activity at 1 µM in assay [1] is 30%. The ED50 in assay [2] was determined as 2.55 mg/kg; in assay [3], 1 mg/kg. The molecule further showed an IC50 in assay [4] of 238 nM.
Turning to `CCCN(C/C=C/c1cccc(/C(=C/CN2CCCC2)c2ccc(C)cc2)n1)C(=O)c1ccc(Cn2c(C)nc3cnccc32)cc1` [Example 16, N-Propyl-4-(1H-2-methylimidazo[4,5-c]pyridin-1-ylmethyl)-N-{3-[6-(3-pyrrolidin-1-yl-1-{4-tolyl}-prop-1E-enyl)-pyridin-2-yl]-prop-2E-enyl}-benzamide], the activity at 1 µM in assay [1] stood at 30%. Also, in assay [2], the ED50 came to 1.55 mg/kg. The “% inhibition (histamine induced bronchoconstriction)” value in assay [3] (10 mg/kg, histamine infusion one hour after dosing) was determined as 46%. The same molecule yielded an IC50 in assay [4] of 130 nM.
Consider `Cc1nc2cnccc2n1Cc1ccc(C(=O)N(C/C=C/c2cccc(/C(=C/CN3CCCC3)c3ccc(Cl)cc3)n2)C2CCCCC2)cc1` [Example 20, N-Cyclohexyl-4-(1H-2-methylimidazo[4,5-c]pyridin-1-ylmethyl)-N-{3-[6-(3-pyrrolidin-1-yl-1-{4-chlorophenyl}-prop-1E-enyl)-pyridin-2-yl]-prop-2E-enyl}-benzamide], for which the ED50 was found to be 4.2 mg/kg in assay [2] and 1 mg/kg in assay [3].
